Test results as given in patent publication US4200650A, “2-Amino-cyclopent-1-ene-1-thiocarboxylic acid-disulfides to treat noradrenergic malfunctions” (Richter Gedeon Vegyeszeti Gyar Rt., priority 1976, dated 1980).

Columns and labels:
Format in all cases: in vivo, male Wistar rats
dopamine-β-hydroxylase [1] = test: Determination of the noradrenaline content of spleen; conditions: ± standard error
Procedure: (§1) The dopamine-β-hydroxylase inhibiting effects of the new compounds according to the invention were examined by the following tests:
(§2) The tests were performed on male Wistar rats weighing 150 to 200 g. The dopamine-β-hydroxylase inhibiting effects of the compounds were evaluated by determining the change of noradrenaline, dopamine and adrenaline levels of the cerebrum, heart, spleen and adrenal gland. The serotonine and 5-hydroxy-indolylacetic acid levels of the cerebrum were also determined. The measurements were performed as follows:
(§3) The animals were decapitated, the cerebrum, heart, spleen and adrenal gland were removed quickly, and the organs were frozen by placing them onto a metal sheet cooled with dry ice. The frozen organs were stored for maximum one night at -20° C.
(§4) Determination of the noradrenaline content of heart and spleen
(§5) The organs were weighed in frozen state and then homogenized in 5.0 ml of 0.4 n perchloric acid containing 0.05% of EDTA-Naa and 0.1% of Na2 S2 O5. The homogenized mixtures were centrifuged as described above for the treatment of adrenal gland, the supernatants were decanted, and the pH was adjusted to 8.0±0.1 with a 0.1 molar tris buffer containing 20 g/l of NaOH and 25 g/l of EDTA-Na2. 100 mg of prepared Al2 O3 (Anton et al.: J. Pharm. Ther. 138, 360/1962/) were added to the samples, and the mixtures were shaken mechanically for 20 minutes. Thereafter Al2 O3 was washed with 2×10 ml of distilled water, and noradrenaline was eluted with 1.0 ml of 0.05 n perchloric acid. 0.5 ml samples of the eluate were applied for the determination of noradrenaline. Noradrenaline was determined according to the method of Shellenberger et al. (Anal. Biochem. 39, 356/1971/), with the following modifications of the basic procedure: 0.5 ml of 0.1 molar Na-K-phosphate buffer, containing 9 g/l of EDTA-Na2, were added to 0.5 ml of the eluate, and the catecholamines (noradrenaline in the examination of heart and spleen and noradrenaline and dopamine in the examination of the cerebrum) were oxidized with 0.1 ml of a 0.1 n iodine solution in 5% potassium iodide. After exactly 2 minutes oxidation was stopped by adding 0.25 ml of a 2.5% sodium sulfite solution in 4.4 n aqueous sodium hydroxide to the mixture. 2 minutes after the introduction of the alkaline sulfite solution 0.2 ml of concentrated acetic acid were added to the samples, upon which the pH decreased to 4.4 to 4.5 Thereafter the samples were placed for 5 minutes into a drying oven heated to 100° C., and then the samples were cooled with ice water. The fluorescency of noradrenaline was measured with an OPTON spectrophotometer at wavelengths of 380 nm (excitation) and 490 nm (emission).
(§6) In the tests disulfiram, 2,2-dipyridyl, bis(1-methyl-4-homopiperazinyl-thriocaronyl)-disulfide, sodium diethyldithiocarbamate and N-phenyl-N'-(2-thiazolyl)-thiourea were applied as reference substances. The values indicated in Table 1 are the percentages in relation to the amine levels of the controls measured in the same tests (± standard error). The statistical calculations were performed on a TPA/i type computer, using Student's t test.

dopamine-β-hydroxylase [2] = test: Determination of the adrenaline content of adrenal gland; conditions: ± standard error
Procedure: as §1, §2, §3
Determination of the adrenaline content of adrenal gland
The adrenal glands were freed from fat and homogenized in 3.0 ml of ice-cold 0.4 n perchloric acid. The homogenized mixtures were centrifuged for 10 minutes at 0° C. with a speed of 3200 r.p.m. using a Janetzky K-70 type centrifuge. 0.05 ml samples were taken from the supernatant, and the adrenaline level was determined directly by the method of Laverty et al. (Anal. Biochem. 22, 269/1968/).
as §6

dopamine-β-hydroxylase [3] = test: Determination of the noradrenaline content of heart; conditions: ± standard error
Procedure: as §1, §2, §3, §4, §5, §6

dopamine-β-hydroxylase [4] = test: Determination of noradrenaline and dopamine levels of brain (dopamine-β-hydroxylase inhibiting effect)
Procedure: as §1, §2, §3
Determination of the noradrenaline, dopamine, serotonine and 5-hydroxy-indolylacetic acid contents of brain
The brains were homogenized in 10 parts by volume of 0.4 n perchloric acid. The homogenized mixture was stored at -20° C. overnight, thereafter it was thawed and centrifuged as described above. A sample of the homogenized mixture corresponding to 0.5 g of brain was removed, the pH of the sample was adjusted to 8.0±0.1 with 0.1 molar tris-buffer of the above composition, and the sample was processed as described above for the determination of the noradrenaline content of heart and spleen, with the difference that 1.5 ml of 0.05 n perchloric acid were applied as eluting agent. 0.5 ml of the eluate were applied to determine the noradrenaline and dopamine contents. The measurement was performed as described above, with the difference that samples of 0.5 ml were applied for the recording of the fluorescency of noradrenaline. The residua was placed for 50 minutes into a drying oven heated to 100° C., thereafter the sample was cooled with ice water, and the fluorescency of dopamine was recorded at wavelengths of 325 nm (excitation) and 380 nm (emission).
In a further test series the serotonine and 5-hydroxy-indolylacetic acid contents were also determined, beside the determination of the noradrenaline and dopamine content, from the same sample. In this instance the brains were homogenized in 10 ml of 75% ethanol, 0.2 ml of EDTA-Na2 and 5% of ascorbic acid were added to the homogenized mixtures, and the homogenized mixtures were maintained at -20° C. overnight. The mixtures were centrifuged as described above, and 5.0 ml samples of the supernatant were removed. The samples were diluted with equal volumes of distilled water, and poured onto ion exchange columns of 0.5×1.5 cm dimensions, filled with buffered Amberlite CG-30 (200 to 400 mesh). The columns were washed with 5 ml of distilled water followed by 1.0 ml of 0.2 n hydrochloric acid, and the first effluent and the aqueous wash were collected for the determination of 5-hydroxy-indolylacetic acid. Elution was continued with further 1.2 ml of 0.2 n hydrochloric acid in order to remove noradrenaline, dopamine and serotonine. Samples of 0.3 ml were used for the determinations.
Noradrenaline and dopamine were determined by the method of Shellenberger, modified as described above, whereas serotonine was determined by the method of Curzon et al. (Brit. J. Pharmacol. 39, 653/1970/). The basic method was modified as follows: A 0.5% solution of ortho-phthal(di)aldehyde in absolute ethanol was diluted with 10 n hydrochloric acid to 50-fold of its original volume, and 0.6 ml of the resulting 0.01% ortho-phthal(di)aldehyde solution were added immediately to 0.5 ml of the serotonine-containing sample. The sample was placed into a hot water bath for 10 minutes, thereafter cooled with tap water, and the fluorescency was recorded at wavelengths of 360 nm (excitation) and 490 nm (emission).
In the tests disulfiram, 2,2-dipyridyl, bis(1-methyl-4-homopiperazinyl-thriocaronyl)-disulfide, sodium diethyldithiocarbamate and N-phenyl-N'-(2-thiazolyl)-thiourea were applied as reference substances. […]

[5] = i.p., 100 mg/kg, 4 hours, ± standard error
[6] = i.p., 200 mg/kg, 4 hours, ± standard error
[7] = i.p., 200 mg/kg, 8 hours, ± standard error
[8] = p.o., 500 mg/kg, 4 hours, ± standard error
[9] = p.o., 500 mg/kg, 8 hours, ± standard error
[10] = i.p., 50 mg/kg, 4 hours, ± standard error
[11] = i.p., 400 mg/kg, time not given

Structure (SMILES) | Spleen NA (noradrenaline) level, percentages in relation to the controls (dopamine-β-hydroxylase [1]; i.p., 200 mg/kg, 4 hours) [%] | Spleen NA (noradrenaline) level, percentages in relation to the controls (dopamine-β-hydroxylase [1]; i.p., 200 mg/kg, 8 hours) [%] | Adrenal gland AD (adrenaline) level, percentages in relation to the controls (dopamine-β-hydroxylase [2]; i.p., 100 mg/kg, 4 hours) [%] | Adrenal gland AD (adrenaline) level, percentages in relation to the controls (dopamine-β-hydroxylase [2]; i.p., 200 mg/kg, 4 hours) [%] | Adrenal gland AD (adrenaline) level, percentages in relation to the controls (dopamine-β-hydroxylase [2]; i.p., 200 mg/kg, 8 hours) [%] | Adrenal gland AD (adrenaline) level, percentages in relation to the controls (dopamine-β-hydroxylase [2]; p.o., 500 mg/kg, 4 hours) [%] | Heart NA (noradrenaline) level, percentages in relation to the controls (dopamine-β-hydroxylase [3]; i.p., 100 mg/kg, 4 hours) [%] | Heart NA (noradrenaline) level, percentages in relation to the controls (dopamine-β-hydroxylase [3]; i.p., 200 mg/kg, 4 hours) [%] | Heart NA (noradrenaline) level, percentages in relation to the controls (dopamine-β-hydroxylase [3]; i.p., 200 mg/kg, 8 hours) [%] | Heart NA (noradrenaline) level, percentages in relation to the controls (dopamine-β-hydroxylase [3]; p.o., 500 mg/kg, 4 hours) [%] | Brain DA (dopamine) level, percentages in relation to the controls (dopamine-β-hydroxylase [4]; [5]) [%] | Brain NA (noradrenaline) level, percentages in relation to the controls (dopamine-β-hydroxylase [4]; [5]) [%] | Brain DA (dopamine) level, percentages in relation to the controls (dopamine-β-hydroxylase [4]; [6]) [%] | Brain NA (noradrenaline) level, percentages in relation to the controls (dopamine-β-hydroxylase [4]; [6]) [%] | Brain DA (dopamine) level, percentages in relation to the controls (dopamine-β-hydroxylase [4]; [7]) [%] | Brain NA (noradrenaline) level, percentages in relation to the controls (dopamine-β-hydroxylase [4]; [7]) [%] | Brain DA (dopamine) level, percentages in relation to the controls (dopamine-β-hydroxylase [4]; [8]) [%] | Brain NA (noradrenaline) level, percentages in relation to the controls (dopamine-β-hydroxylase [4]; [8]) [%] | also measured
COCCNC1=C(C(=S)SSC(=S)C2=C(NCCOC)CCC2)CCC1 [Compound M-4, 2-(N-methoxyethyl)-amino-cyclopent-1-ene-thiocarboxylic acid disulfide] | 69.9±16.9 | 61.9±9.9 | 77.5±6.3 | 96.3±6.7 | 97.0±7.9 | 96.3±6.0 | 91.8±5.9 | 91.7±9.2 | 75.7±3.7 | 86.3±10.1 | 131.5±8.9 | 41.9±2.7 | 134.6±4.0 | 39.6±4.9 | 120.6±5.8 | 28.5±1.4 | 114.5±2.4 | 73.6±2.8 | Spleen NA (noradrenaline) level, percentages in relation to the controls (dopamine-β-hydroxylase [1]; i.p., 100 mg/kg, 4 hours): 81.4±10.8%; Spleen NA (noradrenaline) level, percentages in relation to the controls (dopamine-β-hydroxylase [1]; p.o., 500 mg/kg, 4 hours): 103.1±18.9%; Spleen NA (noradrenaline) level, percentages in relation to the controls (dopamine-β-hydroxylase [1]; p.o., 500 mg/kg, 8 hours): 101.0±14.3%; Adrenal gland AD (adrenaline) level, percentages in relation to the controls (dopamine-β-hydroxylase [2]; p.o., 500 mg/kg, 8 hours): 88.1±5.1%; Heart NA (noradrenaline) level, percentages in relation to the controls (dopamine-β-hydroxylase [3]; p.o., 500 mg/kg, 8 hours): 74.0±8.4%; Brain DA (dopamine) level, percentages in relation to the controls (dopamine-β-hydroxylase [4]; [9]): 111.0±4.0%; Brain NA (noradrenaline) level, percentages in relation to the controls (dopamine-β-hydroxylase [4]; [9]): 51.2±2.8%
NC1=C(C(=S)SSC(=S)C2=C(N)CCC2)CCC1 [Compound M-1] | 92.6±12.4 | 91.2±12.6 | 87.2±6.7 | 70.9±5.8 | 60.2±3.2 |  | 86.5±3.7 | 82.5±5.4 | 83.2±9.5 |  | 121.2±5.8 | 69.5±12.1 | 124.5±1.9 | 56.7±5.9 | 109.0±5.9 | 56.5±6.3 |  |  | 
CCCCNC1=C(C([O-])=S)CCC1.CCCCNC1=C(C([O-])=S)CCC1.[Zn+2] [Compound M-3, 2-(N-butyl)-amino-cyclopent-1-ene-thiocarboxylic acid-disulfide(zinc salt)] |  |  | 60.5±3.6 |  |  | 100.3±8.3 | 91.5±8.1 |  |  | 108.8±3.2 | 121.3±6.1 | 73.5±3.2 |  |  |  |  | 99.2±5.0 | 98.8±2.5 | Adrenal gland AD (adrenaline) level, percentages in relation to the controls (dopamine-β-hydroxylase [2]; i.p., 50 mg/kg, 4 hours): 66.3±5.5%; Heart NA (noradrenaline) level, percentages in relation to the controls (dopamine-β-hydroxylase [3]; i.p., 50 mg/kg, 4 hours): 84.5±4.1%; Brain DA (dopamine) level, percentages in relation to the controls (dopamine-β-hydroxylase [4]; [10]): 112.2±12.0%; Brain NA (noradrenaline) level, percentages in relation to the controls (dopamine-β-hydroxylase [4]; [10]): 85.0±7.1%
C=CCNC1=C(C(=S)SSC(=S)C2=C(NCC=C)CCC2)CCC1 [Compound M-7, 2-(N-allyl)-amino-cyclopent-1-ene-thiocarboxylic acid-disulfide] | 66.1±18.1 | 88.5±33.9 |  | 93.3±8.0 | 69.8±6.8 |  |  | 100.0±3.9 | 91.8±3.7 |  |  |  | 123.6±8.1 | 50.5±5.2 | 104.7±5.7 | 64.5±4.4 |  |  | 
CCN(CC)C(=S)[S-].[Na+] [DDC-Na, sodium diethyldithiocarbamate, reference compound] |  |  |  |  |  |  |  |  |  |  |  |  |  |  |  |  |  |  | Brain DA (dopamine) level, percentages in relation to the controls (dopamine-β-hydroxylase [4]; [11]): 120%; Brain NA (noradrenaline) level, percentages in relation to the controls (dopamine-β-hydroxylase [4]; [11]): 64.1%
